Laboratory results reported in patent US8648066B2 (Exelixis, Inc., priority 2009, dated 2014).

molecular target: mTOR/GbL/Raptor (mTORC1) (Homo sapiens, UniProt P42345); assay: mTOR/GbL/Raptor (mTORC1) ELISA assay; format: biochemical; conditions: phosphorylation of 4E-BP1; 0.2 nM mTORC1, 10 μM ATP; read-out: IC50 in this assay (mTORC1 ELISA)
Protocol: The measurement of mTORC1 enzyme activity was performed in an ELISA assay format following the phosphorylation of 4E-BP1 protein. All experiments were performed in the 384-well format. Generally, 0.5 μL DMSO containing varying concentrations of the test Compound was mixed with 15 μL enzyme solution. Kinase reactions were initiated with the addition of 15 μL of substrates-containing solution. The assay conditions were as follows; 0.2 nM mTORC1, 10 μM ATP and 50 nM NHis-tagged 4E-BP1 in 20 mM Hepes, pH 7.2, 1 mM DTT, 50 mM NaCl, 10 mM MnCl2, 0.02 mg/mL BSA, 0.01% CHAPS, 50 mM β-glycerophosphate. Following an incubation of 120 minutes at ambient temperature, 20 μL of the reaction volume was transferred to a Ni-Chelate-coated 384-well plate. The binding step of the 4E-BP1 protein proceeded for 60 minutes, followed by washing 4 times each with 50 μL of Tris-buffered saline solution (TBS). Anti-phospho-4E-BP1 rabbit-IgG (20 μL, 1:5000) in 5% BSA-TBST (0.2% Tween-20 in TBS) was added and further incubated for 60 minutes. Incubation with a secondary HRP-tagged anti-IgG was similarly performed after washing off the primary antibody (4 washes of 50 μL). Following the final wash step with TBST, 20 μL of SuperSignal ELISA Femto (Pierce Biotechnology) was added and the luminescence measured using an EnVision plate reader.

Structure (SMILES) | IC50
Cc1nc2ccc(-c3ccc4c(c3)CN(c3ncnc(C)c3Cc3cccc(C(F)(F)F)c3)CCO4)cc2[nH]1 [Example 92, 7-(2-methyl-1H-benzimidazol-6-yl)-4-(6-methyl-5-{[3-(trifluoromethyl)phenyl]methyl}pyrimidin-4-yl)-2,3,4,5-tetrahydro-1,4-benzoxazepine] | 250 to 1000 nM
Cc1nc2ccc(-c3ccc4c(c3)CN(c3ncnc(C)c3Cc3ccc(Cl)c(N(C)C)c3)CCO4)cc2[nH]1 [Example 93, 2-chloro-N,N-dimethyl-5-({4-methyl-6-[7-(2-methyl-1H-benzimidazol-6-yl)-2,3-dihydro-1,4-benzoxazepin-4(5H)-yl]pyrimidin-5-yl}methyl)aniline] | ≤ 10 nM
Cc1nc2ccc(-c3ccc4c(c3)CN(c3ncnc(C)c3C(C)c3cccc(F)c3)CCO4)cc2[nH]1 (stereo not drawn) [Example 94, 4-{5-[1-(3-fluorophenyl)ethyl]-6-methylpyrimidin-4-yl}-7-(2-methyl-1H-benzimidazol-6-yl)-2,3,4,5-tetrahydro-1,4-benzoxazepine] | ≤ 10 nM
Cc1nc2ccc(-c3ccc4c(c3)CN(c3ncnc5c3CCC(C)(C)C5)CCO4)cc2[nH]1 [Example 95, 4-(7,7-dimethyl-5,6,7,8-tetrahydroquinazolin-4-yl)-7-(2-methyl-1H-benzimidazol-6-yl)-2,3,4,5-tetrahydro-1,4-benzoxazepine] | 10 to 50 nM
Cc1nc2ccc(-c3ccc4c(c3)CN(c3ccnc(N)n3)CCO4)cc2[nH]1 [Example 96, 4-[7-(2-methyl-1H-benzimidazol-6-yl)-2,3-dihydro-1,4-benzoxazepin-4(5H)-yl]pyrimidin-2-amine] | 250 to 1000 nM
Cc1nc(C)c(Cc2ccc(F)cc2)c(N2CCOc3ccc(-c4ccc5nc(C)[nH]c5c4)cc3C2)n1 [Example 97, 4-{5-[(4-fluorrophenyl)methyl]-2,6-dimethylpyrimidin-4-yl}-7-(2-methyl-1H-benzimidazol-6-yl)-2,3,4,5-tetrahydro-1,4-benzoxazepine] | ≤ 10 nM
Cc1nc2ccc(-c3ccc4c(c3)CN(c3ccnc5ccccc35)CCO4)cc2[nH]1 [Example 98, 7-(2-methyl-1H-benzimidazol-6-yl)-4-quinolin-4-yl-2,3,4,5-tetrahydro-1,4-benzoxazepine] | 50 to 250 nM
Cc1nc2ccc(-c3ccc4c(c3)CN(c3cc(C(F)(F)F)nc5ccccc35)CCO4)cc2[nH]1 [Example 99, 7-(2-methyl-1H-benzimidazol-6-yl)-4-[2-(trifluoromethyl)quinolin-4-yl]-2,3,4,5-tetrahydro-1,4-benzoxazepine] | 50 to 250 nM
Cc1nc2ccc(-c3ccc4c(c3)CN(c3cc(-c5ccccc5)nc5ccccc35)CCO4)cc2[nH]1 [Example 100, 7-(2-methyl-1H-benzimidazol-6-yl)-4-(2-phenylquinolin-4-yl)-2,3,4,5-tetrahydro-1,4-benzoxazepine] | 250 to 1000 nM
Cc1nc2ccc(-c3ccc4c(c3)CN(c3ccnc(C)c3Cc3ccccc3)CCO4)cc2[nH]1 [Example 101, 7-(2-methyl-1H-benzimidazol-6-yl)-4-[2-methyl-3-(phenylmethyl)pyridin-4-yl]-2,3,4,5-tetrahydro-1,4-benzoxazepine] | 10 to 50 nM
Cc1nc2ccc(-c3ccc4c(c3)CN(c3ccnc(C)c3Cc3ccc(F)cc3)CCO4)cc2[nH]1 [Example 102, 4-{3-[(4-fluorophenyl)methyl]-2-methylpyridin-4-yl}-7-(2-methyl-1H-benzimidazol-6-yl)-2,3,4,5-tetrahydro-1,4-benzoxazepine] | ≤ 10 nM
Cc1nc2ccc(-c3ccc4c(c3)CN(c3ccnc(C)c3Cc3cccc(F)c3)CCO4)cc2[nH]1 [Example 103, 4-{3-[(3-fluorophenyl)methyl]-2-methylpyridin-4-yl}-7-(2-methyl-1H-benzimidazol-6-yl)-2,3,4,5-tetrahydro-1,4-benzoxazepine] | ≤ 10 nM
Cc1nc2ccc(-c3ccc4c(c3)CN(c3nccc5ccccc35)CCO4)cc2[nH]1 [Example 105, 4-isoquinolin-1-yl-7-(2-methyl-1H-benzimidazol-6-yl)-2,3,4,5-tetrahydro-1,4-benzoxazepine] | 50 to 250 nM

Results, then the molecule that gave them:

IC50 | Structure (SMILES)
≥ 2000 nM | COC(=O)Nc1nc2ccc(-c3ccc4c(c3)CN(c3ccncn3)CCO4)cc2[nH]1 [Example 107, methyl-6[(4-pyrimidin-4-yl-2,3,4,5-tetrahydro-1,4-benzoxazepin-7-yl)-1H-benzimidazol-2-yl]carbamate]
250 to 1000 nM | COC(=O)Nc1nc2ccc(-c3ccc4c(c3)CN(c3nc(C)nc5ccccc35)CCO4)cc2[nH]1 [Example 108, methyl {6-[4-(2-methylquinazolin-4-yl)-2,3,4,5-tetrahydro-1,4-benzoxazepin-7-yl]-1H-benzimidazol-2-yl}carbamate]
250 to 1000 nM | COC(=O)Nc1nc2ccc(-c3ccc4c(c3)CN(c3ncnc5ccccc35)CCO4)cc2[nH]1 [Example 109, methyl [6-(4-quinazolin-4-yl-2,3,4,5-tetrahydro-1,4-benzoxazepin-7-yl)-1H-benzimidazol-2-yl]carbamate]
≥ 2000 nM | COC(=O)Nc1nc2ccc(-c3ccc4c(c3)CN(c3ncnc5[nH]ccc35)CCO4)cc2[nH]1 [Example 110, methyl {6-[4-(7H-pyrrolo[2,3-d]pyrimidin-4-yl)-2,3,4,5-tetrahydro-1,4-benzoxazepin-7-yl]-1H-benzimidazol-2-yl}carbamate]
1000 to 2000 nM | COC(=O)Nc1nc2ccc(-c3ccc4c(c3)CN(c3ncnc5cc(OC)c(OC)cc35)CCO4)cc2[nH]1 [Example 111, methyl (6-{4-[6,7-bis(methyloxy)quinazolin-4-yl]-2,3,4,5-tetrahydro-1,4-benzoxazepin-7-yl}-1H-benzimidazol-2-yl)carbamate]
250 to 1000 nM | COC(=O)Nc1nc2ccc(-c3ccc4c(c3)CN(c3ncnc5ccc(OC)cc35)CCO4)cc2[nH]1 [Example 112, methyl (6-{4-[6-(methyloxy)quinazolin-4-yl]-2,3,4,5-tetrahydro-1,4-benzoxazepin-7-yl}-1H-benzimidazol-2-yl)carbamate]
10 to 50 nM | COC(=O)Nc1nc2ccc(-c3ccc4c(c3)CN(c3ncnc(C)c3Cc3ccc(F)cc3)CCO4)cc2[nH]1 [Example 113, methyl [6-(4-{5-[(4-fluorophenyl)methyl]-6-methylpyrimidin-4-yl}-2,3,4,5-tetrahydro-1,4-benzoxazepin-7-yl)-1H-benzimidazol-2-yl]carbamate]
250 to 1000 nM | COC(=O)Nc1nc2ccc(-c3ccc4c(c3)CN(c3ccnc5ccccc35)CCO4)cc2[nH]1 [Example 114, methyl [6-(4-quinolin-4-yl-2,3,4,5-tetrahydro-1,4-benzoxazepin-7-yl)-1H-benzimidazol-2-yl]carbamate]
1000 to 2000 nM | Cn1c(N)nc2cc(-c3ccc4c(c3)CN(c3ccnc5ccccc35)CCO4)ccc21 [Example 116, 1-methyl-5-(4-quinolin-4-yl-2,3,4,5-tetrahydro-1,4-benzoxazepin-7-yl)-1H-benzimidazol-2-amine]
50 to 250 nM | c1ccc2c(N3CCOc4ccc(-c5ccc6nc[nH]c6c5)cc4C3)ncnc2c1 [Example 123, 7-(1H-benzimidazol-6-yl)-4-quinazolin-4-yl-2,3,4,5-tetrahydro-1,4-benzoxazepine]
≤ 10 nM | Cc1ncnc(N2CCOc3ccc(-c4cnc(N)s4)cc3C2)c1Cc1ccc(F)cc1 [Example 124, 5-(4-{5-[(4-fluorophenyl)methyl]-6-methylpyrimidin-4-yl}-2,3,4,5-tetrahydro-1,4-benzoxazepin-7-yl)-1,3-thiazol-2-amine]
